Consider 1 molecule from EP0335637A2, “Nerve growth factor peptides” (THE REGENTS OF THE UNIVERSITY OF CALIFORNIA, priority 1988, dated 1989).

Where a SMILES comes first, the peptide text is derived from it.

Data set [1] deals with embryologic day 10 dorsal root ganglia neurons. The data set is described as follows: NGF-independent neurite outgrowth in response to CNTF (nonspecific toxicity check). It is filed as cell-based, chick. The settings on record: C5 up to 2.6p moles/ml (Figure 3). The protocol:
Potential nonspecific toxicity of peptide C5 (KGKE) was investigated with embryologic day 10 dorsal root ganglia neurons which also extend neurites in the presence of ciliary neurotrophic factor (CNTF). The effect of peptide C5 on NGF-independent neurite outgrowth was assessed.

A short description of data set [2]: Resistance to proteolysis during cell culture (HPLC recovery). The format is in vitro ADME. The settings on record: after 24 hr in culture; 2.0 µmole/ml peptide, 100 pg/ml NGF and cells. Here is the method: The resistance of peptide C5 to proteolytic cleavage during cell culture was assessed. Quadruplicate wells were prepared each containing 2.Oµ mole/ml of peptide in culture medium, 100 pg/ml NGF and cells as described above. After 24 hr in culture, 320 ul (4 wells x 80 ul) of culture medium were collected. Fresh culture medium containing 2.0 µmole/ml of peptide was also prepared. Both samples of peptide-containing medium were filtered through a Centricon membrane (Amicon, Bedford) with a molecular weight cutoff of 10,000. 250 µl of filtrate was loaded onto a C18 uBondapak analytic HPLC column and run under the same conditions described above for peptide purification. The quantity of peptides in fresh compared to post-culture medium was determined by integration of their absorbance peaks. After 24 hr in culture, more than 80-85% of the initial quantity of peptide C5 was recovered.

Regarding `NCCCC[C@H](NC(=O)CNC(=O)[C@@H](N)CCCCN)C(=O)N[C@@H](CCC(=O)O)C(N)=O` [C5, KGKE] (H-KGKE-NH2), the “effect on number of neurons bearing neurites in response to CNTF” value in data set [1] is “no detectable effect”. The “initial quantity of peptide recovered” value in data set [2] is 80-85%.
